Experimental data as given in US20010047099A1, “4-aminopicolinates and their use as herbicides” (priority 2000, published 2001).
Read-outs that look alike come from different tables or passages of the source.

Assays:
[1] = test system: Rox orange sorghum (sorghum bicolor); test: Preemergence herbicidal activity; format: in vivo; conditions: pre-emergence, 504 h
How it was run: (§1)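 Seeds were sown in a 70:30 loam/sand mix (pH about 8.1, about 1.5 percent organic matter), and the soil surface was sprayed with compound in aqueous acetone/DMSO containing 0.1 percent Tween 155. Pots were kept in a greenhouse at 23-29° C day, 15 hr photoperiod, top-irrigated; injury was scored visually after 3 weeks.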

[2] = test system: barnyardgrass (Echinochloa crus-galli); test: Preemergence herbicidal activity; format: in vivo; conditions: pre-emergence, 504 h
How it was run: as §1

[3] = test system: blackgrass (Alopecurus myosuroides); test: Preemergence herbicidal activity; format: in vivo; conditions: pre-emergence, 504 h
How it was run: as §1

[4] = test system: cocklebur (Xanthium strumarium); test: Preemergence herbicidal activity; format: in vivo; conditions: pre-emergence, 504 h
How it was run: as §1

[5] = test system: crabgrass (Digitaria sanguinalis); test: Preemergence herbicidal activity; format: in vivo; conditions: pre-emergence, 504 h
How it was run: as §1

[6] = test system: giant foxtail (Setaria faberi); test: Preemergence herbicidal activity; format: in vivo; conditions: pre-emergence, 504 h
How it was run: as §1

[7] = test system: lambsquarters (Chenopodium album); test: Preemergence herbicidal activity; format: in vivo; conditions: pre-emergence, 504 h
How it was run: as §1

[8] = test system: wild oats (Avena fatua); test: Preemergence herbicidal activity; format: in vivo; conditions: pre-emergence, 504 h
How it was run: as §1

[9] = test system: wild poinsettia (Euphorbia heterophylla); test: Preemergence herbicidal activity; format: in vivo; conditions: pre-emergence, 504 h
How it was run: as §1

[10] = test system: White Clover (Trifolium repens); test: Range & Pasture Crop Testing (postemergence track sprayer); format: in vivo; conditions: Table 10
How it was run: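 Postemergence track-sprayer application at 187 L/ha, compounds formulated in 97:3 acetone:DMSO with 0.25% X-77, five rates (X serially diluted to 1/16×). Visual percent control (0–100 scale, burn down) rated 3 weeks after treatment; GR50/GR80 derived by probit analysis.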

[11] = Table 7, rate 35 g/Ha, after 3 weeks, read-out: PREEMERGENCE HERBICIDAL ACTIVITY % CONTROL SORBI
[12] = Table 7, rate 35 g/Ha, after 3 weeks, read-out: PREEMERGENCE HERBICIDAL ACTIVITY % CONTROL ECHCG
[13] = Table 7, rate 35 g/Ha, after 3 weeks, read-out: PREEMERGENCE HERBICIDAL ACTIVITY % CONTROL XANST
[14] = Table 7, rate 35 g/Ha, after 3 weeks, read-out: PREEMERGENCE HERBICIDAL ACTIVITY % CONTROL DIGSA
[15] = Table 7, rate 35 g/Ha, after 3 weeks, read-out: PREEMERGENCE HERBICIDAL ACTIVITY % CONTROL SETFA
[16] = Table 7, rate 35 g/Ha, after 3 weeks, read-out: PREEMERGENCE HERBICIDAL ACTIVITY % CONTROL CHEAL
[17] = Table 7, rate 35 g/Ha, after 3 weeks, read-out: PREEMERGENCE HERBICIDAL ACTIVITY % CONTROL AVEFA
[18] = Table 7, rate 35 g/Ha, after 3 weeks, read-out: PREEMERGENCE HERBICIDAL ACTIVITY % CONTROL EPHHL
[19] = Table 7, rate 35 g/Ha, after 3 weeks, read-out: PREEMERGENCE HERBICIDAL ACTIVITY % CONTROL ALOMY

Row | melting point | SMILES | inhibition at 35 g/ha ([1]; read-out: PR[…] % CONTROL SORBI, Table 7, rate 35 g/Ha, after 3 weeks) [%] | inhibition at 35 g/ha ([2]; read-out: PR[…] % CONTROL ECHCG, Table 7, rate 35 g/Ha, after 3 weeks) [%] | inhibition at 35 g/ha ([3]; read-out: PR[…] % CONTROL ALOMY, Table 7, rate 35 g/Ha, after 3 weeks) [%] | inhibition at 35 g/ha ([4]; read-out: PR[…] % CONTROL XANST, Table 7, rate 35 g/Ha, after 3 weeks) [%] | inhibition at 35 g/ha ([5]; read-out: PR[…] % CONTROL DIGSA, Table 7, rate 35 g/Ha, after 3 weeks) [%] | inhibition at 35 g/ha ([6]; read-out: PR[…] % CONTROL SETFA, Table 7, rate 35 g/Ha, after 3 weeks) [%] | inhibition at 35 g/ha ([7]; read-out: PR[…] % CONTROL CHEAL, Table 7, rate 35 g/Ha, after 3 weeks) [%] | inhibition at 35 g/ha ([8]; read-out: PR[…] % CONTROL AVEFA, Table 7, rate 35 g/Ha, after 3 weeks) [%] | inhibition at 35 g/ha ([9]; read-out: PR[…] % CONTROL EPHHL, Table 7, rate 35 g/Ha, after 3 weeks) [%] | inhibition at 35 g/ha [1, 11] [%] | inhibition at 35 g/ha [2, 12] [%] | inhibition at 35 g/ha [4, 13] [%] | inhibition at 35 g/ha [5, 14] [%] | inhibition at 35 g/ha [6, 15] [%] | inhibition at 35 g/ha [7, 16] [%] | inhibition at 35 g/ha [8, 17] [%] | inhibition at 35 g/ha [9, 18] [%] | GR20 TRFRE [10] [g/ha] | inhibition at 35 g/ha [3, 19] [%]
1 | 182 to 183 °C | Nc1cc(Br)nc(C(=O)O)c1Cl [Compound 14, 4-Amino-6-bromo-3-chloropyridine-2-carboxylic acid] |  |  |  |  |  |  |  |  |  | 50 | 40 | 100 | 80 | 98 | 100 | 40 | 70 |  | 60
2 | 214 °C (dec.) | Nc1c(F)c(Cl)nc(C(=O)O)c1Cl [Compound 19, 4-Amino-3,6-dichloro-5-fluoropyridine-2-carboxylic acid] |  |  |  |  |  |  |  |  |  |  |  |  |  |  |  |  |  |  | 
3 | 154 to 156 °C | COc1c(C(=O)O)nc(Br)c(Cl)c1N [Compound 42, 4-Amino-6-bromo-5-chloro-3-methoxypyridine-2-carboxylic acid] |  |  |  |  |  |  |  |  |  | 20 | 30 | 98 | 30 | 30 | 90 | 30 | 40 |  | 30

The next lines start with the compound.

Row | SMILES | melting point | inhibition at 35 g/ha ([1]; read-out: PR[…] % CONTROL SORBI, Table 7, rate 35 g/Ha, after 3 weeks) [%] | inhibition at 35 g/ha ([2]; read-out: PR[…] % CONTROL ECHCG, Table 7, rate 35 g/Ha, after 3 weeks) [%] | inhibition at 35 g/ha ([3]; read-out: PR[…] % CONTROL ALOMY, Table 7, rate 35 g/Ha, after 3 weeks) [%] | inhibition at 35 g/ha ([4]; read-out: PR[…] % CONTROL XANST, Table 7, rate 35 g/Ha, after 3 weeks) [%] | inhibition at 35 g/ha ([5]; read-out: PR[…] % CONTROL DIGSA, Table 7, rate 35 g/Ha, after 3 weeks) [%] | inhibition at 35 g/ha ([6]; read-out: PR[…] % CONTROL SETFA, Table 7, rate 35 g/Ha, after 3 weeks) [%] | inhibition at 35 g/ha ([7]; read-out: PR[…] % CONTROL CHEAL, Table 7, rate 35 g/Ha, after 3 weeks) [%] | inhibition at 35 g/ha ([8]; read-out: PR[…] % CONTROL AVEFA, Table 7, rate 35 g/Ha, after 3 weeks) [%] | inhibition at 35 g/ha ([9]; read-out: PR[…] % CONTROL EPHHL, Table 7, rate 35 g/Ha, after 3 weeks) [%] | inhibition at 35 g/ha [1, 11] [%] | inhibition at 35 g/ha [2, 12] [%] | inhibition at 35 g/ha [4, 13] [%] | inhibition at 35 g/ha [5, 14] [%] | inhibition at 35 g/ha [6, 15] [%] | inhibition at 35 g/ha [7, 16] [%] | inhibition at 35 g/ha [8, 17] [%] | inhibition at 35 g/ha [9, 18] [%] | GR20 TRFRE [10] [g/ha] | inhibition at 35 g/ha [3, 19] [%]
4 | Nc1cc(Cl)nc(C(=O)O)c1Cl [Compound 1, 4-Amino-3,6-dichloropyridine-2-carboxylic acid] |  | 60 | 17 | 36 | 99 | 20 | 40 | 99 | 37 | 62 |  |  |  |  |  |  |  |  |  | 
5 | COC(=O)c1nc(Cl)cc(N)c1Cl [Compound 3, methyl 4-amino-3,6-dichloropyridine-2-carboxylate] | 134 to 135 °C |  |  |  |  |  |  |  |  |  | 30 | 20 | 90 | 40 | 40 | 100 | 10 | 20 | <17.5 | 
6 | CCOC(=O)c1nc(Cl)cc(N)c1Cl [Compound 4, ethyl 4-amino-3,6-dichloropyridine-2-carboxylate] | 98 to 99 °C |  |  |  |  |  |  |  |  |  |  |  |  |  |  |  |  |  | <17.5 | 
